Where two headings read alike, the source gives them in different places.
Legend:
MDCK-MDR1 cells [1] = details: pH 7.4 iso-method, cited from earlier work; for Papp, inhibitor: with inhibitor; for Papp, B⟶A: without inhibitor
MDCK-MDR1 cells [2] = assay: Comparison of Papp,B-A with and without inhibitor in MDCK-MDR1 cells (own and literature data); details: calculated from literature Papp,B⟶A and Papp with inhibitor; pH 7.4 iso-method
[3] = Calculation of neutral fraction (fn)
[4] = basic; no reference given; cited from earlier work
[5] = ref Troutman and Thakker (2003)

## CN(C)CCC(c1ccc(Cl)cc1)c1ccccn1 (stereo not shown) [Chlorpheniramine]
MDCK-MDR1 cells [1]; ref Obradovic et al. (2007)
  Papp, inhibitor: 66.2 ×10⁻⁶ cm/s
  Papp, B⟶A: 93.7 ×10⁻⁶ cm/s
MDCK-MDR1 cells [2]
  Factor difference: 1

## CN1CCC[C@@H]1CCO[C@](C)(c1ccccc1)c1ccc(Cl)cc1 [Clemastine]
MDCK-MDR1 cells [1]; ref Obradovic et al. (2007)
  Papp, B⟶A: 156.4 ×10⁻⁶ cm/s
MDCK-MDR1 cells [2]
  Factor difference: 3

## CN1CCC[C@@H]1Cc1c[nH]c2ccc(CCS(=O)(=O)c3ccccc3)cc12 [Eletriptan]
MDCK-MDR1 cells [1]; ref Doan et al. (2002)
  Papp, inhibitor: 42.9 ×10⁻⁶ cm/s
  Papp, B⟶A: 66.3 ×10⁻⁶ cm/s
MDCK-MDR1 cells [2]
  Factor difference: 2

## CC[C@]1(O)C[C@@H]2CN(CCc3c([nH]c4ccccc34)[C@@](C(=O)OC)(c3cc4c(cc3OC)N(C)[C@H]3[C@@](O)(C(=O)OC)[C@H](OC(C)=O)[C@]5(CC)C=CCN6CC[C@]43[C@@H]65)C2)C1 [Vinblastine]
MDCK-MDR1 cells [1]; ref Taub et al. (2005)
  Papp, inhibitor: 1.92 ×10⁻⁶ cm/s
  Papp, B⟶A: 13.22 ×10⁻⁶ cm/s
MDCK-MDR1 cells [1]; [5]
  Papp, inhibitor: 17.7 ×10⁻⁶ cm/s
  Papp, B⟶A: 35.7 ×10⁻⁶ cm/s
MDCK-MDR1 cells [1]; ref Wang et al. (2005)
  Papp, inhibitor: 1.2 ×10⁻⁶ cm/s
  Papp, B⟶A: 10.77 ×10⁻⁶ cm/s

## CCOC(=O)CN[C@@H](C(=O)N1CC[C@H]1C(=O)NCc1ccc(/C(N)=N\O)cc1)C1CCCCC1 [Ximelagatran]
MDCK-MDR1 cells [1]; ref Eriksson et al. (2006)
  Papp, inhibitor: 7 ×10⁻⁶ cm/s
  Papp, B⟶A: 39 ×10⁻⁶ cm/s
MDCK-MDR1 cells [2]
  Factor difference: 6

## C[C@H]1C[C@@H]2[C@H]([C@@H](O)C[C@@]3(C)[C@H]2CC[C@]3(O)C(=O)CO)[C@@]2(C)C=CC(=O)C=C12 [Methylprednisolone]
MDCK-MDR1 cells [1]; [5]
  Papp, inhibitor: 28.48 ×10⁻⁶ cm/s
  Papp, B⟶A: 94.3 ×10⁻⁶ cm/s
MDCK-MDR1 cells [2]
  Factor difference: 3

## CC(C)c1nc(CN(C)C(=O)N[C@H](C(=O)N[C@@H](Cc2ccccc2)C[C@H](O)[C@H](Cc2ccccc2)NC(=O)OCc2cncs2)C(C)C)cs1 [Ritonavir]
MDCK-MDR1 cells [1]; [5]
  Papp, B⟶A: 23.6 ×10⁻⁶ cm/s
MDCK-MDR1 cells [2]
  Factor difference: 6

## Cc1c(O)cccc1C(=O)N[C@@H](CSc1ccccc1)[C@H](O)CN1C[C@H]2CCCC[C@H]2C[C@H]1C(=O)NC(C)(C)C [Nelfinavir]
MDCK-MDR1 cells [1]; ref Doan et al. (2002)
  Papp, inhibitor: 19.7 ×10⁻⁶ cm/s
  Papp, B⟶A: 78.6 ×10⁻⁶ cm/s
MDCK-MDR1 cells [2]
  Factor difference: 4

## CN/C(=N/CCSCc1nc[nH]c1C)NC#N [Cimetidine]
MDCK-MDR1 cells [1]; ref Doan et al. (2002)
  Papp, inhibitor: 0.515 ×10⁻⁶ cm/s
  Papp, B⟶A: 1.89 ×10⁻⁶ cm/s
MDCK-MDR1 cells [2]
  Factor difference: 4

## NS(=O)(=O)c1cc(C(=O)O)c(NCc2ccco2)cc1Cl [Furosemide]
[3]; neutral fraction at pH 9
  fn: 0.0%

## CC(C)(C)NCC(O)COc1ccc(NC(=O)NC2CCCCC2)cc1 (stereo not shown) [Talinolol]
[3]; neutral fraction at pH 8
  fn: 5%
[4]
  pKa: 9.4

## CC(C)(C)NC(=O)[C@@H]1C[C@@H]2CCCC[C@@H]2CN1C[C@@H](O)[C@H](Cc1ccccc1)NC(=O)[C@H](CC(N)=O)NC(=O)c1ccc2ccccc2n1 [Saquinavir]
MDCK-MDR1 cells [1]; ref Doan et al. (2002)
  Papp, inhibitor: 22 ×10⁻⁶ cm/s
  Papp, B⟶A: 39.5 ×10⁻⁶ cm/s
MDCK-MDR1 cells [1]; [5]
  Papp, inhibitor: 12.6 ×10⁻⁶ cm/s
  Papp, B⟶A: 108 ×10⁻⁶ cm/s

## CN(C)CCC(c1ccc(Br)cc1)c1ccccn1 (stereo not shown) [Brompheniramine]
MDCK-MDR1 cells [1]; ref Obradovic et al. (2007)
  Papp, inhibitor: 76.8 ×10⁻⁶ cm/s
  Papp, B⟶A: 118.8 ×10⁻⁶ cm/s
MDCK-MDR1 cells [2]
  Factor difference: 2

## CC(C)NCC(O)c1ccc(NS(C)(=O)=O)cc1 (stereo not shown) [Sotolol]
MDCK-MDR1 cells [1]; ref Liu et al. (2012)
  Papp, inhibitor: 0.2 ×10⁻⁶ cm/s
  Papp, B⟶A: 1.05 ×10⁻⁶ cm/s
MDCK-MDR1 cells [2]
  Factor difference: 5

## CNC(=C[N+](=O)[O-])NCCSCc1ccc(CN(C)C)o1 [Ranitidine]
MDCK-MDR1 cells [1]; [5]
  Papp, inhibitor: 1.25 ×10⁻⁶ cm/s
  Papp, B⟶A: 3.29 ×10⁻⁶ cm/s
MDCK-MDR1 cells [2]
  Factor difference: 3

## CN(C)C(=O)Oc1cccc([N+](C)(C)C)c1 [Neostigmine]
MDCK-MDR1 cells [1]; ref Doan et al. (2002)
  Papp, inhibitor: 0.852 ×10⁻⁶ cm/s
  Papp, B⟶A: 1.54 ×10⁻⁶ cm/s
MDCK-MDR1 cells [2]
  Factor difference: 2

## CC(C)(C)c1ccc(C(O)CCCN2CCC(C(O)(c3ccccc3)c3ccccc3)CC2)cc1 (stereo not shown) [Terfenadine]
MDCK-MDR1 cells [1]; ref Doan et al. (2002)
  Papp, inhibitor: 28.5 ×10⁻⁶ cm/s
  Papp, B⟶A: 42.1 ×10⁻⁶ cm/s
MDCK-MDR1 cells [1]; ref Obradovic et al. (2007)
  Papp, inhibitor: 2.39 ×10⁻⁶ cm/s
  Papp, B⟶A: 11.43 ×10⁻⁶ cm/s

## Nc1ccn([C@@H]2CS[C@H](CO)O2)c(=O)n1 [Lamiduvine]
MDCK-MDR1 cells [1]; ref De Souza et al. (2009)
  Papp, inhibitor: 0.11 ×10⁻⁶ cm/s
  Papp, B⟶A: 0.18 ×10⁻⁶ cm/s
MDCK-MDR1 cells [2]
  Factor difference: 2

## CN(C)C(=O)C(CCN1CCC(O)(c2ccc(Cl)cc2)CC1)(c1ccccc1)c1ccccc1 [Loperamide]
MDCK-MDR1 cells [1]; ref Doan et al. (2002)
  Papp, inhibitor: 45.6 ×10⁻⁶ cm/s
  Papp, B⟶A: 77.3 ×10⁻⁶ cm/s
MDCK-MDR1 cells [1]; ref Wang et al. (2005)
  Papp, inhibitor: 12 ×10⁻⁶ cm/s
  Papp, B⟶A: 42.64 ×10⁻⁶ cm/s

## Cc1cn([C@H]2C[C@H](N=[N+]=[N-])[C@@H](CO)O2)c(=O)[nH]c1=O [Zidovudine]
MDCK-MDR1 cells [1]; ref De Souza et al. (2009)
  Papp, inhibitor: 3.26 ×10⁻⁶ cm/s
  Papp, B⟶A: 9.98 ×10⁻⁶ cm/s
MDCK-MDR1 cells [2]
  Factor difference: 3

## C=C[C@H]1C[N@@]2CC[C@H]1C[C@@H]2[C@@H](O)c1ccnc2ccc(OC)cc12 [Quinidine]
MDCK-MDR1 cells [1]; ref Gertz et al. (2010)
  Papp, inhibitor: 0.176 ×10⁻⁶ cm/s
  Papp, B⟶A: 66.88 ×10⁻⁶ cm/s
MDCK-MDR1 cells [1]; [5]
  Papp, inhibitor: 25.6 ×10⁻⁶ cm/s
  Papp, B⟶A: 156 ×10⁻⁶ cm/s
MDCK-MDR1 cells [1]; ref Wang et al. (2005)
  Papp, inhibitor: 10 ×10⁻⁶ cm/s
  Papp, B⟶A: 114.82 ×10⁻⁶ cm/s

## COC(=O)c1ccccc1-c1c2ccc(=N)cc-2oc2cc(N)ccc12 [Rhodamine 123]
MDCK-MDR1 cells [1]; ref Tang et al. (2004)
  Papp, inhibitor: 1.173 ×10⁻⁶ cm/s
  Papp, B⟶A: 10.17 ×10⁻⁶ cm/s
MDCK-MDR1 cells [1]; [5]
  Papp, inhibitor: 1.16 ×10⁻⁶ cm/s
  Papp, B⟶A: 15.3 ×10⁻⁶ cm/s
MDCK-MDR1 cells [1]; ref Wang et al. (2005)
  Papp, inhibitor: 2.2 ×10⁻⁶ cm/s
  Papp, B⟶A: 7.63 ×10⁻⁶ cm/s

From PMC11637191, “The pH-dependence of efflux ratios determined with bidirectional transport assays across cellular monolayers” (International Journal of Pharmaceutics: X, 2024)
